Several values for one entry are separate records, joined by “and”; a condition that tells them apart may be missing. Equal entries are not always repeated. Toxic doses and inconclusive results are not listed.
System: L1210 leukemia ip in BDF1 mice, survival T/C
Experiment: NCI In Vivo Anticancer Drug Screen. Data for tumor model L1210 Leukemia (intraperitoneal) in B6D2F1 (BDF1) mice
Details: endpoint: mean survival time, higher = longer survival
How it was run: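 Antitumor effect is assessed in tumor-bearing animals. Survival in the compound arm is compared with a vehicle-dosed control arm and expressed as their quotient.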

[1] = dose: 100.0 mg/kg/injection, schedule: Q01DX009 (ip), vehicle: Klucel (hydroxypropylcellulose) (HPC)
[2] = dose: 100.0 mg/kg/injection, schedule: Q04DX003 (ip), vehicle: Klucel (hydroxypropylcellulose) (HPC)
[3] = dose: 200.0 mg/kg/injection, schedule: Q01DX009 (ip), vehicle: Klucel (hydroxypropylcellulose) (HPC)
[4] = dose: 200.0 mg/kg/injection, schedule: Q04DX003 (ip), vehicle: Klucel (hydroxypropylcellulose) (HPC)
[5] = dose: 400.0 mg/kg/injection, schedule: Q01DX009 (ip), vehicle: Klucel (hydroxypropylcellulose) (HPC)
[6] = dose: 100.0 mg/kg/injection, schedule: Q01DX009 (ip), vehicle: saline
[7] = dose: 200.0 mg/kg/injection, schedule: Q01DX009 (ip), vehicle: saline
[8] = dose: 100.0 mg/kg/injection, schedule: Q04DX003 (ip), vehicle: saline with Tween-80
[9] = dose: 200.0 mg/kg/injection, schedule: Q04DX003 (ip), vehicle: saline with Tween-80
[10] = dose: 400.0 mg/kg/injection, schedule: Q04DX003 (ip), vehicle: saline with Tween-80

With `O=C1c2ccccc2-c2ncccc21` the T/C [1] was 103 % of control, the T/C [2] was 98 % of control and the T/C [3] was 102 % of control. The T/C [4] was 109 % of control and the T/C [5] was 92 % of control.
For `C[N+]1=C2CCCCC2=C(N)CC1`, the T/C (dose: 6.25 mg/kg/injection, schedule: Q01DX009 (ip), vehicle: saline sonified) was 106 % of control, the T/C (dose: 12.5 mg/kg/injection, schedule: Q01DX009 (ip), vehicle: saline sonified) was 92 % of control and the T/C (dose: 25.0 mg/kg/injection, schedule: Q01DX009 (ip), vehicle: saline sonified) was 92 % of control.
In the case of `COc1cc(NC2=C(Cl)C(=O)C(Nc3cc(OC)c(OC)c(OC)c3)=C(Cl)C2=O)cc(OC)c1OC`, the T/C [2] is reported as 119 % of control, the T/C [4] is reported as 95 % of control and the T/C (dose: 400.0 mg/kg/injection, schedule: Q04DX003 (ip), vehicle: Klucel (hydroxypropylcellulose) (HPC)) is reported as 98 % of control.
`Oc1ccc2ccccc2c1C(c1ccccc1)c1c(O)ccc2ccccc12` was tested, and the T/C (dose: 87.5 mg/kg/injection, schedule: Q04DX003 (ip), vehicle: carboxymethylcellulose (CMC)) was 106 % of control, the T/C (dose: 175.0 mg/kg/injection, schedule: Q04DX003 (ip), vehicle: carboxymethylcellulose (CMC)) was 95 % of control and the T/C (dose: 350.0 mg/kg/injection, schedule: Q04DX003 (ip), vehicle: carboxymethylcellulose (CMC)) was 111 % of control.
For `Cc1nc(N)nc(Cl)c1CCCc1ccccc1`, the T/C (dose: 100.0 mg/kg/injection, schedule: Q01DX001 (ip), vehicle: Klucel (hydroxypropylcellulose) (HPC)) was 97 % of control, the T/C (dose: 200.0 mg/kg/injection, schedule: Q01DX001 (ip), vehicle: Klucel (hydroxypropylcellulose) (HPC)) was 102 % of control and the T/C (dose: 400.0 mg/kg/injection, schedule: Q01DX001 (ip), vehicle: Klucel (hydroxypropylcellulose) (HPC)) was 107 % of control.
In the case of `O=C(O)c1cc([N+](=O)[O-])cc([N+](=O)[O-])c1` (tested in a mixture with another compound), the T/C (dose: 3.13 mg/kg/injection, schedule: Q04DX002 (ip), vehicle: saline with Tween-80) is reported as 100 % of control, the T/C (dose: 6.25 mg/kg/injection, schedule: Q04DX002 (ip), vehicle: saline with Tween-80) is reported as 106 % of control and the T/C (dose: 25.0 mg/kg/injection, schedule: Q04DX002 (ip), vehicle: saline with Tween-80) is reported as 96 % of control and 100 % of control. The T/C (dose: 50.0 mg/kg/injection, schedule: Q04DX002 (ip), vehicle: saline with Tween-80) was 114 % of control.
With `CCCCCCCCCCCCNC(=O)C[n+]1cccc(C(=O)N(C)C)c1` the T/C (dose: 5.0 mg/kg/injection, schedule: Q04DX003 (ip), vehicle: saline) was 93 % of control, the T/C (dose: 10.0 mg/kg/injection, schedule: Q04DX003 (ip), vehicle: saline) was 96 % of control and the T/C (dose: 20.0 mg/kg/injection, schedule: Q04DX003 (ip), vehicle: saline) was 93 % of control.
`CCOC(=O)c1ccc(N=NN(C)C)cc1` was tested, and the T/C (dose: 30.0 mg/kg/injection, schedule: Q01DX Z (ip), vehicle: carboxymethylcellulose (CMC)) was 97 % of control and 102 % of control, the T/C (dose: 60.0 mg/kg/injection, schedule: Q01DX Z (ip), vehicle: carboxymethylcellulose (CMC)) was 107 % of control and the T/C (dose: 90.0 mg/kg/injection, schedule: Q01DX Z (ip), vehicle: carboxymethylcellulose (CMC)) was 110 % of control and 124 % of control.
`O=C1c2ccccc2C(=O)N1CCC[P+](c1ccccc1)(c1ccccc1)c1ccccc1` was tested, and the T/C (dose: 6.25 mg/kg/injection, schedule: Q01DX009 (ip), vehicle: saline with Tween-80) was 106 % of control, the T/C (dose: 12.5 mg/kg/injection, schedule: Q01DX009 (ip), vehicle: saline with Tween-80) was 111 % of control and the T/C (dose: 25.0 mg/kg/injection, schedule: Q01DX009 (ip), vehicle: saline with Tween-80) was 116 % of control and 120 % of control.
In the case of `O=NN(CCCl)C(=O)Nc1ccc(-c2ccc(NC(=O)N(CCCl)N=O)cc2)cc1`, the T/C (dose: 8.0 mg/kg/injection, schedule: Q01DX001 (ip), vehicle: carboxymethylcellulose (CMC)) is reported as 116 % of control, the T/C (dose: 16.0 mg/kg/injection, schedule: Q01DX001 (ip), vehicle: carboxymethylcellulose (CMC)) is reported as 118 % of control and the T/C (dose: 250.0 mg/kg/injection, schedule: Q01DX001 (ip), vehicle: carboxymethylcellulose (CMC)) is reported as 161 % of control. The T/C (dose: 375.0 mg/kg/injection, schedule: Q01DX001 (ip), vehicle: carboxymethylcellulose (CMC)) was 163 % of control, the T/C (dose: 500.0 mg/kg/injection, schedule: Q01DX001 (ip), vehicle: carboxymethylcellulose (CMC)) was 190 % of control and the T/C (dose: 750.0 mg/kg/injection, schedule: Q01DX001 (ip), vehicle: carboxymethylcellulose (CMC)) was 229 % of control. For the same molecule, the T/C (dose: 1000.0 mg/kg/injection, schedule: Q01DX001 (ip), vehicle: carboxymethylcellulose (CMC)) was 229 % of control, the T/C (dose: 1500.0 mg/kg/injection, schedule: Q01DX001 (ip), vehicle: carboxymethylcellulose (CMC)) was 232 % of control and the T/C (dose: 2000.0 mg/kg/injection, schedule: Q01DX001 (ip), vehicle: carboxymethylcellulose (CMC)) was 168 % of control. The T/C (dose: 2500.0 mg/kg/injection, schedule: Q01DX001 (ip), vehicle: carboxymethylcellulose (CMC)) was 223 % of control.
`CCN(CC)CCCC(C)Nc1ccccn1` (configuration not stated) was tested, and the T/C (dose: 75.0 mg/kg/injection, schedule: Q01DX001 (ip), vehicle: carboxymethylcellulose (CMC)) was 102 % of control and the T/C (dose: 150.0 mg/kg/injection, schedule: Q01DX001 (ip), vehicle: carboxymethylcellulose (CMC)) was 100 % of control.
`O=c1cccc2n1Cc1cc3ccccc3nc1-2` was tested, and the T/C (dose: 37.5 mg/kg/injection, schedule: Q04DX003 (ip), vehicle: saline) was 95 % of control and the T/C (dose: 75.0 mg/kg/injection, schedule: Q04DX003 (ip), vehicle: saline) was 89 % of control.
For `O=C(N/N=C/c1ccccc1O)c1ccccc1NC(=O)C1CC1`, the T/C [1] was 104 % of control, the T/C [3] was 95 % of control and the T/C [5] was 101 % of control.
`O=C/C(Br)=C(\Br)C(=O)O` was tested, and the T/C (dose: 12.5 mg/kg/injection, schedule: Q01DX001 (ip), vehicle: carboxymethylcellulose (CMC)) was 93 % of control, the T/C (dose: 12.5 mg/kg/injection, schedule: Q01DX009 (ip), vehicle: carboxymethylcellulose (CMC)) was 95 % of control and the T/C (dose: 12.5 mg/kg/injection, schedule: Q04DX002 (ip), vehicle: carboxymethylcellulose (CMC)) was 97 % of control. The T/C (dose: 12.5 mg/kg/injection, schedule: Q04DX003 (ip), vehicle: carboxymethylcellulose (CMC)) was 97 % of control, the T/C (dose: 25.0 mg/kg/injection, schedule: Q01DX001 (ip), vehicle: carboxymethylcellulose (CMC)) was 93 % of control and the T/C (dose: 25.0 mg/kg/injection, schedule: Q01DX009 (ip), vehicle: carboxymethylcellulose (CMC)) was 98 % of control and 92 % of control. For the same molecule, the T/C (dose: 25.0 mg/kg/injection, schedule: Q04DX002 (ip), vehicle: carboxymethylcellulose (CMC)) was 93 % of control and 98 % of control, the T/C (dose: 25.0 mg/kg/injection, schedule: Q04DX003 (ip), vehicle: carboxymethylcellulose (CMC)) was 103 % of control and the T/C (dose: 50.0 mg/kg/injection, schedule: Q01DX001 (ip), vehicle: carboxymethylcellulose (CMC)) was 106 % of control. The T/C (dose: 50.0 mg/kg/injection, schedule: Q01DX009 (ip), vehicle: carboxymethylcellulose (CMC)) was 96 % of control and the T/C (dose: 50.0 mg/kg/injection, schedule: Q04DX002 (ip), vehicle: carboxymethylcellulose (CMC)) was 90 % of control.
In the case of `CC1CC(O)C([N+](=O)[O-])C(O)C1` (configuration not stated), the T/C (dose: 12.5 mg/kg/injection, schedule: Q01DX009 (ip), vehicle: saline) is reported as 102 % of control.
For `COC(=O)CCC(C)[N+](=O)[O-]` (configuration not stated), the T/C [6] was 112 % of control, the T/C [7] was 104 % of control and the T/C (dose: 400.0 mg/kg/injection, schedule: Q01DX009 (ip), vehicle: saline) was 98 % of control.
`O=C1NC(CCO)C(=O)NC1CCO` (configuration not stated) was tested, and the T/C (dose: 50.0 mg/kg/injection, schedule: Q01DX009 (ip), vehicle: saline) was 97 % of control, the T/C (dose: 100.0 mg/kg/injection, schedule: Q01DX001 (ip), vehicle: saline) was 100 % of control and the T/C [6] was 112 % of control. The T/C (dose: 200.0 mg/kg/injection, schedule: Q01DX001 (ip), vehicle: saline) was 97 % of control, the T/C [7] was 104 % of control and the T/C (dose: 400.0 mg/kg/injection, schedule: Q01DX001 (ip), vehicle: saline) was 100 % of control.
With `O=C1OC(=O)C2(Br)C3C=CC(CC3)C12Br` (configuration not stated) the T/C [8] was 93 % of control, the T/C [9] was 96 % of control and the T/C [10] was 98 % of control.
With `Nc1cc2c3ccccc3ncc2c2ccccc12` the T/C (dose: 100.0 mg/kg/injection, schedule: Q01DX009 (ip), vehicle: saline with Tween-80) was 106 % of control, the T/C [8] was 104 % of control and the T/C (dose: 200.0 mg/kg/injection, schedule: Q01DX009 (ip), vehicle: saline with Tween-80) was 108 % of control. For the same molecule, the T/C [9] was 94 % of control, the T/C (dose: 400.0 mg/kg/injection, schedule: Q01DX009 (ip), vehicle: saline with Tween-80) was 108 % of control and the T/C [10] was 105 % of control.
